How the values were obtained:
[1] = target: T1, TR-α (Homo sapiens, UniProt P10827); experiment: In vitro TR-α activity (in-house protocol); format: cell-based
T1 sequence (P10827 1-410 isoform P10827-2): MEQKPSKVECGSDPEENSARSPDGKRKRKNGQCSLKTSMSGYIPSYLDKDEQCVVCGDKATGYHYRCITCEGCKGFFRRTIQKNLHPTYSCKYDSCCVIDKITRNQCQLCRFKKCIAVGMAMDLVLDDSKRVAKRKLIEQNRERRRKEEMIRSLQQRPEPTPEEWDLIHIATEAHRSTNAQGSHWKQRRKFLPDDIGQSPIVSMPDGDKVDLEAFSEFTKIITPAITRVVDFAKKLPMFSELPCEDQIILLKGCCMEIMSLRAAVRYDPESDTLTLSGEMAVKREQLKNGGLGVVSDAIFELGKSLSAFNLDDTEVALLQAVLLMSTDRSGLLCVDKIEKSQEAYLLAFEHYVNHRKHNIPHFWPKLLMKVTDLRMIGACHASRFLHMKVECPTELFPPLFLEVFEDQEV
Method: (§1) Invitro TR-α & TR-β activities were determined as per in-house protocols and the results of representative compounds are provided in tables 1 & 2 below as a proof of the efficacies of the novel class of compounds disclosed above.

[2] = target: T2, TR-β (Homo sapiens, UniProt P10828); experiment: In vitro TR-β activity (in-house protocol); format: cell-based; conditions: for fold induction at 0.001 µM: Conc. 1 nM; for fold induction at 0.001 µM / fold induction at 0.01 µM / fold induction at 0.1 µM / fold induction at 1 µM: read-out: TR-β Fold Induction w.r.t T3(100 nm); for fold induction at 0.01 µM: Conc. 10 nM; for fold induction at 0.1 µM: Conc. 100 nM; for fold induction at 1 µM: Conc. 1000 nM
T2 sequence (P10828 1-461): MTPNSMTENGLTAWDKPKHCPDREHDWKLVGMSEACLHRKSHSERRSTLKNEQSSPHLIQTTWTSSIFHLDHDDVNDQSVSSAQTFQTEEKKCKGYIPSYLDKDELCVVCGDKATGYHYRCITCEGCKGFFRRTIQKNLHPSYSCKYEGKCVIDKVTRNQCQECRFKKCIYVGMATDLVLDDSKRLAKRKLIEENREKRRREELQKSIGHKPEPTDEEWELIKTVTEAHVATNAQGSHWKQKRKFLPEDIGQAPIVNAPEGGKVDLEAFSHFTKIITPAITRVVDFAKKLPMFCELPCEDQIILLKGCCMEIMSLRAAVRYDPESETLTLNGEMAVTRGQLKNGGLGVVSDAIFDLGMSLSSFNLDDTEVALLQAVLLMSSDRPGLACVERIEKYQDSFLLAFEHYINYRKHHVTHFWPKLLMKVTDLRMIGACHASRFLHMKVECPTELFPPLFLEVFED
Method: as §1

Row | Compound | EC50 [1] [µM] | EC50 [2] [µM] | TR-α Fold Induction w.r.t T3(100 nm) ([1]; Conc. 1 nM) | TR-α Fold Induction w.r.t T3(100 nm) ([1]; Conc. 10 nM) | TR-α Fold Induction w.r.t T3(100 nm) ([1]; Conc. 100 nM) | TR-α Fold Induction w.r.t T3(100 nm) ([1]; Conc. 1000 nM) | fold induction at 0.001 µM [2] | fold induction at 0.01 µM [2] | fold induction at 0.1 µM [2] | fold induction at 1 µM [2]
1 | O=C(O)CN(C(=O)Oc1ccc(O)cc1)c1cc(Cl)c(Oc2ccc(O)c(C(=O)c3cccc(Cl)c3)c2)c(Cl)c1 [Example 47, [{3,5-Dichloro-4-[3-(3-chloro-benzoyl)-4-hydroxy-phenoxy]-phenyl}-(4-hydroxy-phenoxycarbonyl)-amino]-acetic acid] | 0.0164 | 0.0113 |  |  |  |  |  |  |  | 
2 | O=C(O)CN(C(=O)Oc1ccc(O)cc1)c1cc(Cl)c(Oc2ccc(O)c(S(=O)(=O)N3CCCCC3)c2)c(Cl)c1 [Example 41, [{3,5-Dichloro-4-[4-hydroxy-3-(piperidine-1-sulfonyl)-phenoxy]-phenyl}-(4-hydroxy-phenoxycarbonyl)-amino]-acetic acid] |  |  | 20.78 | 56.19 | 99.00 | 78.50 | 23.3 | 73.5 | 90 | 67
3 | CC(C)(C)c1cc(Oc2c(Cl)cc(N(CC(=O)O)C(=O)Oc3ccc(O)cc3)cc2Cl)ccc1O [Example 35, [[4-(3-tert-Butyl-4-hydroxy-phenoxy)-3,5-dichloro-phenyl]-(4-hydroxy-phenoxycarbonyl)-amino]-acetic acid] |  |  | 25.40 | 106.00 | 130.68 | 72.06 | 22.4 | 80.5 | 125 | 81.3
4 | CCOC(=O)N(CC(=O)O)c1cc(Cl)c(Oc2ccc(O)c(C(=O)c3ccc(Cl)cc3)c2)c(Cl)c1 [Example 20, ({3,5-Dichloro-4-[3-(4-chloro-benzoyl)-4-hydroxy-phenoxy]-phenyl}-ethoxycarbonyl-amino)-acetic acid] |  |  | 10.42 | 15.74 | 21.47 | 18.49 | 19.9 | 40.7 | 87.7 | 81.2
5 | CCOC(=O)N(CC(=O)O)c1cc(Cl)c(Oc2ccc(O)c(Cc3ccccc3)c2)c(Cl)c1 [Example 3, {[4-(3-Benzyl-4-hydroxy-phenoxy)-3,5-dichloro-phenyl]-ethoxycarbonyl-amino}-acetic acid] | 0.274 | 0.089 |  |  |  |  |  |  |  | 
6 | CCC(C)c1cc(Oc2c(C)cc(N(CC(=O)O)CC(=O)O)cc2C)ccc1O (centres unmarked) [Example 21, {[4-(3-sec-Butyl-4-hydroxy-phenoxy)-3,5-dimethyl-phenyl]-carboxymethyl-amino}-acetic acid] |  |  | 17.17 | 56.81 | 110.66 | 93.53 | 33.4 | 153 | 202 | 148
7 | CCOC(=O)N(CC(=O)O)c1cc(Cl)c(Oc2ccc(O)c(C(=O)c3cccc(Cl)c3)c2)c(Cl)c1 [Example 25, ({3,5-Dichloro-4-[3-(3-chloro-benzoyl)-4-hydroxy-phenoxy]-phenyl}-ethoxycarbonyl-amino)-acetic acid] |  |  | 4.22 | 8.55 | 12.70 | 7.15 | 10.9 | 26.3 | 70.1 | 51.7
8 | O=C(O)CN(CC(=O)O)c1cc(Cl)c(Oc2ccc(O)c(S(=O)(=O)N3CCCCC3)c2)c(Cl)c1 [Example 33, (Carboxymethyl-{3,5-dichloro-4-[4-hydroxy-3-(piperidine-1-sulfonyl)-phenoxy]-phenyl}-amino)-acetic acid] |  |  | 9.66 | 13.90 | 25.46 | 46.33 | 8.63 | 11.9 | 26 | 46.8
9 | CC(C)c1cc(Oc2c(Cl)cc(N(CC(=O)O)CC(=O)O)cc2Cl)ccc1O [Example 31, {Carboxymethyl-[3,5-dichloro-4-(4-hydroxy-3-isopropyl-phenoxy)-phenyl]-amino}-acetic acid] |  |  | 8.17 | 17.06 | 50.99 | 46.21 | 12.1 | 27.8 | 64.3 | 75.2
10 | O=C(O)CN(CC(=O)O)c1cc(Cl)c(Oc2ccc(O)c(C(=O)c3ccc(Cl)cc3)c2)c(Cl)c1 [Example 28, (Carboxymethyl-{3,5-dichloro-4-[3-(4-chloro-benzoyl)-4-hydroxy-phenoxy]-phenyl}-amino)-acetic acid] |  |  | 8.97 | 14.71 | 25.77 | 33.47 | 10.4 | 20.9 | 45.4 | 46.1
11 | CN(C)S(=O)(=O)c1cc(Oc2c(Cl)cc(N(CC(=O)O)C(=O)Oc3ccc(O)cc3)cc2Cl)ccc1O [Example 38, [[3,5-Dichloro-4-(3-dimethylsulfamoyl-4-hydroxy-phenoxy)-phenyl]-(4-hydroxy-phenoxycarbonyl)-amino]-acetic acid] |  |  | 09.36 | 13.61 | 25.32 | 41.59 | 12.3 | 16.9 | 43.5 | 81.4
12 | CC(C)NS(=O)(=O)c1cc(Oc2c(Cl)cc(N(CC(=O)O)C(=O)Oc3ccc(O)cc3)cc2Cl)ccc1O [Example 45, [[3,5-Dichloro-4-(4-hydroxy-3-isopropylsulfamoyl-phenoxy)-phenyl]-(4-hydroxy-phenoxycarbonyl)-amino]-acetic acid] |  |  | 10.48 | 12.02 | 23.05 | 50.62 | 13.5 | 18.7 | 47.1 | 88.9
13 | O=C(O)CN(C(=O)Oc1ccc(O)cc1)c1cc(Br)c(Oc2ccc(O)c(C(=O)c3ccc(Cl)cc3)c2)c(Br)c1 [Example 67, [{3,5-Dibromo-4-[3-(4-chloro-benzoyl)-4-hydroxy-phenoxy]-phenyl}-(4-hydroxy-phenoxycarbonyl)-amino]-acetic acid] | 0.049 | 0.0128 |  |  |  |  |  |  |  | 
14 | CCc1cc(Oc2c(Cl)cc(N(CC(=O)O)C(=O)Oc3ccc(O)cc3)cc2Cl)ccc1O [Example 48, [[3,5-Dichloro-4-(3-ethyl-4-hydroxy-phenoxy)-phenyl]-(4-hydroxy-phenoxycarbonyl)-amino]-acetic acid] |  |  | 08.16 | 17.51 | 34.61 | 45.08 | 9.02 | 19.4 | 47.7 | 37.6
15 | O=C(O)CN(C(=O)Oc1ccc(O)cc1)c1cc(Cl)c(Oc2ccc(O)c(S(=O)(=O)N3CCOCC3)c2)c(Cl)c1 [Example 61, [{3,5-Dichloro-4-[4-hydroxy-3-(morpholine-4-sulfonyl)-phenoxy]-phenyl}-(4-hydroxy-phenoxycarbonyl)-amino]-acetic acid] |  |  | 11.55 | 12.50 | 12.30 | 28.11 | 10.2 | 12.2 | 28.9 | 85.2
16 | O=C(O)CN(C(=O)Oc1ccc(O)cc1)c1cc(Cl)c(Oc2ccc(O)c(C(=O)c3ccc(Cl)cc3)c2)c(Cl)c1 [Example 44, [{3,5-Dichloro-4-[3-(4-chloro-benzoyl)-4-hydroxy-phenoxy]-phenyl}-(4-hydroxy-phenoxycarbonyl)-amino]-acetic acid] | 0.0848 | 0.0148 |  |  |  |  |  |  |  | 
